Key:
[1] = tested on: platelet aggregation in PRP of type-2 diabetic patients; test: Platelet aggregation in citrate-anticoagulated PRP, light transmission aggregometry (LTA); assay type: cell-based, human; conditions: for ADP 5 late platelet aggregation (mean ± SD) / ADP 5 max platelet aggregation (mean ± SD): ADP 5 μM; for ADP 5 late platelet aggregation (mean ± SD) / ADP 20 late platelet aggregation (mean ± SD) / U-46619 late platelet aggregation (mean ± SD) / AA late platelet aggregation (mean ± SD) / COLL late platelet aggregation (mean ± SD): late aggregation at 6 minutes; for ADP 5 late platelet aggregation (mean ± SD) / ADP 5 max platelet aggregation (mean ± SD) / ADP 20 late platelet aggregation (mean ± SD) / ADP 20 max platelet aggregation (mean ± SD) / U-46619 late platelet aggregation (mean ± SD) / U-46619 max platelet aggregation (mean ± SD) / AA late platelet aggregation (mean ± SD) / COLL late platelet aggregation (mean ± SD) / COLL max platelet aggregation (mean ± SD): PRP ± 100 nM Compound 3 in vitro; for ADP 5 max platelet aggregation (mean ± SD) / ADP 20 max platelet aggregation (mean ± SD) / U-46619 max platelet aggregation (mean ± SD) / AA max platelet aggregation (mean ± SD) / COLL max platelet aggregation (mean ± SD): maximal aggregation; for ADP 20 late platelet aggregation (mean ± SD) / ADP 20 max platelet aggregation (mean ± SD): ADP 20 μM; for U-46619 late platelet aggregation (mean ± SD) / U-46619 max platelet aggregation (mean ± SD): U-46619 7 uM; for AA late platelet aggregation (mean ± SD) / AA max platelet aggregation (mean ± SD): arachidonic acid 1 mM; for AA max platelet aggregation (mean ± SD): PRP ± 100 nM Compound 3 in vitro 10 min 37°C; for COLL late platelet aggregation (mean ± SD) / COLL max platelet aggregation (mean ± SD): collagen 3 ug/ml
Method: Patient population: Ten patients affected by type-2 diabetes mellitus and CAD (coronary artery disease), on chronic daily treatment with 81 mg aspirin (enteric coated acetylsalicylic acid, Cardioaspirin, Bayer, Germany) are switched to clopidogrel (75 mg/day) monotherapy for 7-10 days prior to study. Pharmacodynamic assessments are performed while on aspirin (81 mg) monotherapy and clopidogrel (75 mg) monotherapy.
Blood sampling with 19-gauge needle or larger without the use of tourniquet. The first two ml of blood sampled was discarded. The venous blood samples are drawn into tri-sodium citrate filled tubes (BD Vacutainer 0.109 M. Ref. 363048) for the LTA. All tri-sodium citrate used to anticoagulate a blood sample remains in the plasma phase since it was not taken up by platelets, erythrocytes and leukocytes. Citrate plasma concentration and the resulting free plasma Ca2+ needed for platelet aggregation is directly determined by the individual haematocrit.
Platelet-rich plasma (PRP) is prepared by centrifugation at 120×g for 10 min at room temperature. Autologous platelet-poor plasma (PPP) is prepared by centrifugation at 2300×g for 15 min at room temperature. The PRP platelet count is adjusted to 250.000/ul by the autologous PPP. Stability for the platelet aggregation test is 2 hours at room temperature. Platelet aggregation is performed using LTA [2-5]. Blood is collected in citrated tubes. Citrate concentrations are adjusted according to the individual haematocrit levels according to prior LTA studies using Evolva compound. LTA is assessed using PRP by the turbidimetric method in a 2-channel aggregometer (Chrono-Log 490 Model, Chrono-Log Corp., Havertown) according to the instructions of the manufacturer. Light transmission is adjusted to 0% with the PRP and to 100% for the PPP for each measurement. Curves are recorded for 6 minutes. Platelet aggregation is determined as the maximal percent change in light transmittance from baseline using PPP as a reference as well as late platelet aggregation at 6 minutes. Platelet agonists include U-46619 (7 uM), arachidonic acid (1 mM), collagen (3 ug/ml) and ADP (20 μM and 5 μM). Pharmacodynamic testing is performed following 10 min in vitro incubation at 37° C. of PRP with 100 nM Compound 3 and without 100 nM Compound 3 (placebo).
Total of 10 LTA analysis per patient at each time point; total 2 time points=20 assessments. Table 1 and FIG. 6B compare aspirin vs. aspirin+Compound 3, Table 2 and FIG. 7A compare clopidogrel vs. clopidigrel+Comppound 3, and Table 3 and FIG. 7B compare aspirin+Compound 3 vs. clopidogrel+Comound 3.

[2] = Bioavailability (statement); conditions: in vivo
[3] = tested on: human coronary artery smooth muscle cells; test: Human coronary artery smooth muscle cell proliferation (WST-1); assay type: cell-based
Method: Human coronary artery SMC is cultured in SmGM2 kit medium. At 80% confluence, the SMCs are trypsinized and resuspended in either DMEM supplemented with 2% FCS (“low serum media”), or in SmGM2 kit medium containing 5% FCS, 2 ng/ml FGF, 0.5 ng/ml EGF, 5 μg/ml insulin (“growth factor media”). Subsequently, 5000 cells in 200 μL are added to each well in a 96-well plate and left to adhere overnight. Either vehicle or Compound 3 (50 nM, 500 nM, 5 μM) is added to the wells 1 h before U 46619 at different concentrations (0.1 nM to 10 μM) and incubated for another 48 h. All experiments are repeated 3-5 times for each experimental condition.
Cell proliferation is evaluated using WST-1 reagent according to the manufacturer's instructions. In brief, after replacement of phenol red containing media by 200 μL transparent serum-supplemented DMEM, 10 μL of diluted WST-1 reagent is added to each well at the end of the 48 h incubation period. After 1 h incubation at 37° C., the absorbance of the formazan dye formed is measured at 440 nm using a microplate reader.
All results are expressed as mean±SE. Statistically significant differences are determined by a one-way analysis of variances, followed by Holm-Sidak post hoc test, for multiple comparisons, using Sigma Stat software. A P value of less than 0.05 is considered significant.

CC(=O)Oc1ccccc1C(=O)O [ASA, acetylsalicylic acid]
ADP 5 late platelet aggregation (mean ± SD) [1]: 46.3 ± 15% | ADP 5 max platelet aggregation (mean ± SD) [1]: 52.6 ± 12% | ADP 20 late platelet aggregation (mean ± SD) [1]: 72 ± 6% | ADP 20 max platelet aggregation (mean ± SD) [1]: 74.3 ± 6% | U-46619 late platelet aggregation (mean ± SD) [1]: 74.9 ± 4.6% | U-46619 max platelet aggregation (mean ± SD) [1]: 77 ± 5.2% | AA late platelet aggregation (mean ± SD) [1]: 8.5 ± 23% | AA max platelet aggregation (mean ± SD) [1]: 9.4 ± 22.7% | COLL late platelet aggregation (mean ± SD) [1]: 59.6 ± 17.2% | COLL max platelet aggregation (mean ± SD) [1]: 61.4 ± 17.6%

COC(=O)[C@H](c1ccccc1Cl)N1CCc2sccc2C1 [CLOP, clopidogrel]
ADP 5 late platelet aggregation (mean ± SD) [1]: 19.7 ± 21.9% | ADP 5 max platelet aggregation (mean ± SD) [1]: 32.8 ± 17.2% | ADP 20 late platelet aggregation (mean ± SD) [1]: 44.6 ± 18.9% | ADP 20 max platelet aggregation (mean ± SD) [1]: 54.8 ± 13.3% | U-46619 late platelet aggregation (mean ± SD) [1]: 68.8 ± 13.8% | U-46619 max platelet aggregation (mean ± SD) [1]: 71.6 ± 11.6% | AA late platelet aggregation (mean ± SD) [1]: 47.6 ± 28.2% | AA max platelet aggregation (mean ± SD) [1]: 49.7 ± 28.2% | COLL late platelet aggregation (mean ± SD) [1]: 70.5 ± 10.5% | COLL max platelet aggregation (mean ± SD) [1]: 72.6 ± 10.2%

O=C(O)CC/C=C\C[C@@H]1CO[C@H](c2ccccc2Cl)O[C@@H]1c1ccccc1O (single isomer, unassigned) [Compound 2]
solubility (Solubility (statement)): poor solubility | bioavailability [2]: poor

CCCCC[C@H](O)/C=C/[C@@H]1[C@@H](C/C=C\CCCC(=O)O)[C@H]2CO[C@@H]1C2 [Compound U46619]
concentration of maximal response (cell number, WST-1) ([3]; growth factor media): 1 nM | cell number assessed by WST-1 ([3]; growth factor media, U46619 0.1 nM to 10 μM, 48 h): bell-shaped concentration-dependent increase | absorbance vs. vehicle-treated cells (WST-1) ([3]; growth factor media, U46619 at 0.1 μM and higher): does not significantly differ | SMC proliferation ([3]; low serum media (2% FCS)): did not significantly alter

From patent US20160193179A1, “Treatment of Cardiovascular Risk in Diabetic Patients” (EVOLVA SA, priority 2012, published 2016)
